Test system: 3T3 proliferation
Test: IGF-1-induced DNA synthesis (3H-thymidine incorporation)
Assay type: cell-based
Conditions: Rattus norvegicus; activated overnight with 50 ng/mL IGF-1; read-out: inhibited 3T3 proliferation (IC50, thymidine incorporation)
Description: Human tumor cell lines or a rat fibroblast cell line are plated out in flat-well plates in complete medium and allowed to adhere overnight. The cells are then starved in medium containing 0.1% bovine serum albumin (BSA) overnight, pre-incubated for 1 h with or without dilutions of compound, then activated overnight with 50 ng/mL insulin-like growth factor (IGF-1). Proliferation is determined by the level of ^3H-thymidine incorporation into DNA. IC50's are determined by comparing the level of thymidine incorporation found in the presence of compound compared to controls.

In the case of `COc1cc(C)c(Nc2nccc(Nc3cc(C45CC6CC(CC(C6)C4)C5)on3)n2)cc1OC` [Example 18, N^2-(4,5-Dimethoxy-2-methylphenyl)-N^4-(5-adamantylisoxazol-3-yl)-2,4-pyrimidinediamine], the IC50 is reported as < 150 nM.
`COc1cc(Nc2nccc(Nc3cc(-c4ccccc4)on3)n2)cc(OC)c1OC` [Example 15, N^2-(3,4,5-Trimethoxyphenyl)-N^4-(5-phenylisoxazol-3-yl)-2,4-pyrimidinediamine] was tested, and the IC50 was < 150 nM.
For `COc1cc(Nc2nccc(Nc3cc(C4CCCCC4)no3)n2)cc(OC)c1OC` [Example 17, N^2-(3,4,5-Trimethoxyphenyl)-N^4-(3-cyclohexylisoxazol-5-yl)-2,4-pyrimidinediamine], the IC50 was < 150 nM.
In the case of `COc1cc(Nc2nccc(Nc3cc(-c4ccccc4)on3)n2)ccc1N1CCOCC1` [Example 14, N^2-(3-Methoxy-4-morpholin-4-yl-phenyl)-N^4-(5-phenyl-isoxazol-3-yl)-pyrimidine-2,4-diamine], the IC50 is reported as < 150 nM.
